Source: ChEMBL document CHEMBL3822432, “Antibacterial and anticancer activity of a series of novel peptides incorporating cyclic tetra-substituted C(α) amino acids” (Bioorg Med Chem, 2016)

What was measured:
Type in all cases: functional
[1] = system: Salmonella enterica subsp. enterica serovar Typhimurium str. LT2; test: Antibacterial activity against Salmonella enterica LT2 Typhimurium ATCC 15277 by two fold serial dilution method
Acinetobacter baumannii = test: Antibacterial activity against Acinetobacter baumannii B5W71 ATCC 15149 by two fold serial dilution method
Pseudomonas aeruginosa = test: Antibacterial activity against Pseudomonas aeruginosa Boston 41501 ATCC 27853 by two fold serial dilution method
Klebsiella aerogenes = test: Antibacterial activity against carbapenem-resistant Enterobacter aerogenes NCDC819-56 ATCC 13048 by two fold serial dilution method

For GENTAMICIN, the MIC [1] was 2.09 µM, the MIC (Acinetobacter baumannii) was 2.09 µM and the MIC (Pseudomonas aeruginosa) was 8.3 µM. The MIC (Klebsiella aerogenes) was 1.04 µM.
